{"source": "patent US20240310388A1", "about": "“DIAGNOSTIC METHODS FOR HIDRADENITIS SUPPURATIVA” (AMGEN INC., priority 2023, published 2024)", "key": {"[1]": {"system": "subjects with moderate to severe hidradenitis suppurativa (Hurley stage II or III)", "test": "Phase 2 clinical study (NCT03852472, AURORA): HiSCR, AN count, DF count and IHS4 at Week 12", "type": "in vivo, human", "conditions": "for HiSCR response rate % (n/N): biomarker sample subset of AURORA (n = 68 HS patients), placebo 25", "protocol": "The study was a randomized, double-blind, placebo-controlled, three group Phase 2 trial in 435 subjects with moderate to severe hidradenitis suppurativa (Hurley stage II or III). Subjects were randomized 1:1:1 to a treatment of 10 mg avacopan twice daily, 30 mg avacopan twice daily or a placebo twice daily for 12 weeks. Following the 12 weeks double-blind treatment period, subjects on placebo were re-randomized 1:1 to receive 10 mg or 30 mg avacopan twice daily for additional 24 weeks. Subjects treated with avacopan continued to receive the same dose (either 10 mg or 30 mg twice daily) for additional 24 weeks. Subjects were on study treatment for 36 weeks and were followed for 8 weeks for assessment of safety and efficacy. The primary efficacy analysis was at 12 weeks. The primary efficacy endpoint assessed by the proportion of subjects achieving Hidradenitis Suppurativa Clinical Response (HiSCR) at Week 12. • At least 18 years of age • Clinical diagnosis of HS (Hurley Stage II or III), confirmed by a dermatologist, for at least 6 months prior to Screening • HS lesions are present in at least 2 distinct anatomic areas • Inadequate or loss of response to a systemic course of antibiotics typically of at least 90 days • Must have at least 5 inflammatory nodules or abscesses at screening • Use adequate birth control for subject and partners of child bearing potential • Willing and able to give written Informed Consent • Pregnant or breast-feeding • Any other skin disease that may interfere with the assessment of HS • Rapidly progressive, expanding HS within 30 days prior to screening • More than 20 draining fistulae at screening • Any anti-TNF-α treatment for HS or for other conditions prior to Day 1 visit will be prohibited. Exception: Subjects who were previously treated with an anti-TNF-α drug and discontinued treatment >12 weeks prior to Day 1 visit are allowed for enrollment • Systemic antibiotics are generally excluded • Topical antibiotics use within 14 days prior to Day 1 is excluded • Have started a topical prescription medicine for HS within 14 days prior to screening • A systemic medicine for HS, including biologics and other systemic therapies • Have received within 14 days prior to Day 1 visit or is expected to require oral or transdermal opioid analgesics (except for tramadol) for any reason The proportion of subjects achieving HiSCR at Week 12 is calculated as those subjects having at least a 50% reduction from baseline in abscess and inflammatory nodule (AN) count, with no increase in abscess count and no increase in draining fistula count number at Week 12 divided by the total number of subjects with non-missing value in each treatment group. p-values are obtained from a Cochran-Mantel-Haenszel (CMH) test stratified by stratification factors Hurley Stage (Stage II vs. III), and anti-TNF drug use (Treatment naïve vs. Previous treatment). Plasma samples were collected at baseline prior to the start of treatment from 68 enrolled HS patients in phase II AURORA study (NCT03852472) and from 20 independent age and gender matched healthy controls."}, "HS patients": {"system": "HS patients", "test": "Phase 2 clinical study (NCT03852472): safety and tolerability", "type": "in vivo, human", "protocol": "The study was a randomized, double-blind, placebo-controlled, three group Phase 2 trial in 435 subjects with moderate to severe hidradenitis suppurativa (Hurley stage II or III). Subjects were randomized 1:1:1 to a treatment of 10 mg avacopan twice daily, 30 mg avacopan twice daily or a placebo twice daily for 12 weeks. Following the 12 weeks double-blind treatment period, subjects on placebo were re-randomized 1:1 to receive 10 mg or 30 mg avacopan twice daily for additional 24 weeks. Subjects treated with avacopan continued to receive the same dose (either 10 mg or 30 mg twice daily) for additional 24 weeks.\nSubjects were on study treatment for 36 weeks and were followed for 8 weeks for assessment of safety and efficacy. The primary efficacy analysis was at 12 weeks."}}}
{"smiles": "Cc1ccc(NC(=O)[C@H]2CCCN(C(=O)c3c(C)cccc3F)[C@H]2c2ccc(NC3CCCC3)cc2)cc1C(F)(F)F", "note": "[avacopan]", "values": [{"measurement": "% Difference (avacopan − placebo) in HiSCR", "setting": "[1]; Hurley Stage II, Week 12, avacopan 10 mg BID", "result": "−13.9", "unit": "%"}, {"measurement": "% Adjusted difference (avacopan − placebo) in HiSCR", "setting": "[1]; Hurley Stage II, Week 12, avacopan 10 mg BID, 95% CI (−26.8, −0.2)", "result": "−13.8", "unit": "%"}, {"measurement": "HiSCR Responder Rate, n/N", "setting": "[1]; Hurley Stage II, Week 12, avacopan 10 mg BID, placebo 35.3, p=0.0473", "result": 21.4, "unit": "%"}, {"measurement": "HiSCR Responder Rate, n/N", "setting": "[1]; Hurley Stage II, Week 12, avacopan 10 mg BID, placebo 35.3, p=0.0473, listed as Avacopan", "result": "18/84 (21.4) %"}, {"measurement": "% Difference (avacopan − placebo) in HiSCR", "setting": "[1]; Hurley Stage II, Week 12, avacopan 30 mg BID", "result": "−4.3", "unit": "%"}, {"measurement": "% Adjusted difference (avacopan − placebo) in HiSCR", "setting": "[1]; Hurley Stage II, Week 12, avacopan 30 mg BID, 95% CI (−18.1, 9.6)", "result": "−4.3", "unit": "%"}, {"measurement": "HiSCR Responder Rate, n/N", "setting": "[1]; Hurley Stage II, Week 12, avacopan 30 mg BID, placebo 35.3, p=0.5469", "result": "27/87 (31.0) %"}, {"measurement": "HiSCR Responder Rate, n/N", "setting": "[1]; Hurley Stage III (ITT1), Week 12, avacopan 10 mg BID, placebo 22.2", "result": 24.0, "unit": "%"}, {"measurement": "HiSCR Responder Rate, n/N", "setting": "[1]; Hurley Stage III (ITT1), Week 12, avacopan 10 mg BID, placebo 22.2, listed as Avacopan", "result": "12/50 (24) %"}, {"measurement": "HiSCR Responder Rate, n/N", "setting": "[1]; Hurley Stage III (ITT1), Week 12, avacopan 30 mg BID, placebo 22.2, p=0.0349 (text)", "result": 42.6, "unit": "%"}, {"measurement": "HiSCR Responder Rate, n/N", "setting": "[1]; Hurley Stage III (ITT1), Week 12, avacopan 30 mg BID, placebo 22.2, p=0.0349 (text), listed as Avacopan", "result": "20/47 (42.6) %"}, {"measurement": "IHS4, AN, draining fistula and abscess count", "setting": "[1]; Hurley Stage III patients, week 12", "result": "consistent reduction"}, {"measurement": "% Difference (avacopan − placebo) in HiSCR", "setting": "[1]; Hurley Stage III, Week 12, avacopan 10 mg BID", "result": 1.8, "unit": "%"}, {"measurement": "% Adjusted difference (avacopan − placebo) in HiSCR", "setting": "[1]; Hurley Stage III, Week 12, avacopan 10 mg BID, 95% CI (−15.3, 18.3)", "result": 1.8, "unit": "%"}, {"measurement": "% Difference (avacopan − placebo) in HiSCR", "setting": "[1]; Hurley Stage III, Week 12, avacopan 30 mg BID", "result": 20.3, "unit": "%"}, {"measurement": "% Adjusted difference (avacopan − placebo) in HiSCR", "setting": "[1]; Hurley Stage III, Week 12, avacopan 30 mg BID, 95% CI (1.6, 37.9)", "result": 20.8, "unit": "%"}, {"measurement": "percentage reduction in IHS4 Score", "setting": "[1]; Hurley Stage III, Week 12, avacopan 30 mg BID, placebo 20.7%", "result": 36.9, "unit": "%"}, {"measurement": "percentage reduction in AN count", "setting": "[1]; Hurley Stage III, Week 12, avacopan 30 mg BID, placebo 23.7%", "result": 40.8, "unit": "%"}, {"measurement": "percentage reduction in DF count", "setting": "[1]; Hurley Stage III, Week 12, avacopan 30 mg BID, placebo 24.0%", "result": 45.2, "unit": "%"}, {"measurement": "HiSCR response rate % (n/N)", "setting": "[1]; avacopan 10 mg", "result": "29.2 (7/24) %"}, {"measurement": "HiSCR response rate % (n/N)", "setting": "[1]; avacopan 30 mg", "result": "54.2 (13/24) %"}, {"measurement": "improvement in HiSCR vs. placebo", "setting": "[1]; pre-specified Hurley Stage III (severe HS) patients at 12 weeks", "result": "statistically significant dose-dependent improvement"}, {"measurement": "safety and tolerability", "setting": "HS patients", "result": "safe and well tolerated"}]}
